Like-named read-outs stand apart in the source and are kept apart here.
Target: T1, AR (Homo sapiens, UniProt P10275)
T1 construct: endogenous in cells; host or cells: VCaP cells
T1 sequence (P10275 1-920): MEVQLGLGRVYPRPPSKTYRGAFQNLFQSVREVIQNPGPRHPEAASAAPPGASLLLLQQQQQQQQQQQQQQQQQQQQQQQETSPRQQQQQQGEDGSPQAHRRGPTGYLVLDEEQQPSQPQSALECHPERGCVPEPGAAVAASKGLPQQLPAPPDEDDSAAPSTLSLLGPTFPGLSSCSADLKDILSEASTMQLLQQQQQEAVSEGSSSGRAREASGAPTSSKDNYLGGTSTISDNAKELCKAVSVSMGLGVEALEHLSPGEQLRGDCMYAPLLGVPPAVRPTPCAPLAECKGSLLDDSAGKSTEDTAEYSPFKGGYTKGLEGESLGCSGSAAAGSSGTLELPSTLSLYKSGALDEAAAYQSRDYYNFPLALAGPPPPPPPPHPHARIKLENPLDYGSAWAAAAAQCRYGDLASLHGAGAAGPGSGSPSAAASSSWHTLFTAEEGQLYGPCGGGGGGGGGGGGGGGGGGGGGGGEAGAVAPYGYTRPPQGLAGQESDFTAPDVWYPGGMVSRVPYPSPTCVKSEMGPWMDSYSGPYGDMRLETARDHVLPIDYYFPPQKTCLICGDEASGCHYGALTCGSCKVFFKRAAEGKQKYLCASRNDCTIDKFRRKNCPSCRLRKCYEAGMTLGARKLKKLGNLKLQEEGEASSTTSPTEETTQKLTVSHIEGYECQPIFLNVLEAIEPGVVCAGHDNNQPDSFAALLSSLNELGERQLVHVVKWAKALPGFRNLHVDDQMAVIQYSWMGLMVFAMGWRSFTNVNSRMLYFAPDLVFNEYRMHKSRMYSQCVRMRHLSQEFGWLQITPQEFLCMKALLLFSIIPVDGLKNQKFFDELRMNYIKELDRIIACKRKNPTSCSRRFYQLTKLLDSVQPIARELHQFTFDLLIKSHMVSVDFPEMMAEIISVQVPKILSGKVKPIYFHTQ
Test: VCAP AR Degradation Assay
Assay type: cell-based
Details: for Y (AR degradation efficiency, % of DMSO control): class symbols *; for DC50: class symbols A-C
In short: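 24 h, 37 °C, VCaP (DMEM/8% FBS), 10-pt 1:3 dilutions from 5 μM final top, 0.1% DMSO ctrl. Lysis on ice/4 °C 1 h; total AR by sandwich ELISA, normalized to DMSO. 4PL fit → DC50, EC50, Y (min AR level).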

## CC1(C)C(=O)N(c2cnc(C#N)c(C(F)(F)F)c2)C(=S)N1c1ccc(OCCN2CCN(CC(=O)Nc3cccc(NC4CCC(=O)NC4=O)c3)CC2)c(CCF)c1 (stereo not shown) [Example 161, 2-(4-(2-(4-(3-(6-cyano-5-(trifluoromethyl)pyridin-3-yl)-5,5-dimethyl-4-oxo-2-thioxoimidazolidin-1-yl)-2-(2-fluoroethyl)phenoxy)ethyl)piperazin-1-yl)-N-(3-(2,6-dioxopiperidin-3-ylamino)phenyl)acetamide]
  Y (AR degradation efficiency, % of DMSO control): * (0<Y<=25%)
read-out: DC50
  DC50: < 100 nM

## CC(C)c1cc(N2C(=S)N(c3ccc(C#N)c(C(F)(F)F)c3)C(=O)C2(C)C)ccc1OCCN1CCN(CC(=O)Nc2cccc(NC3CCC(=O)NC3=O)c2)[C@H](C)C1 (stereo partly drawn) [Example 162, 2-((R)-4-(2-(4-(3-(4-cyano-3-(trifluoromethyl)phenyl)-5,5-dimethyl-4-oxo-2-thioxoimidazolidin-1-yl)-2-isopropylphenoxy)ethyl)-2-methylpiperazin-1-yl)-N-(3-(2,6-dioxopiperidin-3-ylamino)phenyl)acetamide]
  Y (AR degradation efficiency, % of DMSO control): ** (25%<Y<=35%)
read-out: DC50
  DC50: 100 to 500 nM

## CC(C)c1cc(N2C(=S)N(c3cnc(C#N)c(C(F)(F)F)c3)C(=O)C2(C)C)ccc1OCCN1CCN(CC(=O)Nc2cccc(NC3CCC(=O)NC3=O)c2)[C@H](C)C1 (stereo partly drawn) [Example 163, 2-((R)-4-(2-(4-(3-(6-cyano-5-(trifluoromethyl)pyridin-3-yl)-5,5-dimethyl-4-oxo-2-thioxoimidazolidin-1-yl)-2-isopropylphenoxy)ethyl)-2-methylpiperazin-1-yl)-N-(3-(2,6-dioxopiperidin-3-ylamino)phenyl)acetamide]
  Y (AR degradation efficiency, % of DMSO control): * (0<Y<=25%)
read-out: DC50
  DC50: 100 to 500 nM

## C[C@@H]1CN(CCOc2ccc(N3C(=S)N(c4ccc(C#N)c(C(F)(F)F)c4)C(=O)C3(C)C)cc2CCF)CCN1CC(=O)Nc1cccc(NC2CCC(=O)NC2=O)c1 (stereo partly drawn) [Example 164, 2-((R)-4-(2-(4-(3-(4-cyano-3-(trifluoromethyl)phenyl)-5,5-dimethyl-4-oxo-2-thioxoimidazolidin-1-yl)-2-(2-fluoroethyl)phenoxy)ethyl)-2-methylpiperazin-1-yl)-N-(3-(2,6-dioxopiperidin-3-ylamino)phenyl)acetamide]
  Y (AR degradation efficiency, % of DMSO control): * (0<Y<=25%)
read-out: DC50
  DC50: < 100 nM

## CCc1cc(N2C(=S)N(c3cnc(C#N)c(C(F)(F)F)c3)C(=O)C2(C)C)ccc1OCCN1CCN(C2(C(=O)Nc3cc(Cl)cc(NC4CCC(=O)NC4=O)c3)CC2)CC1 (stereo not shown) [Example 165, N-(3-chloro-5-(2,6-dioxopiperidin-3-ylamino)phenyl)-1-(4-(2-(4-(3-(6-cyano-5-(trifluoromethyl)pyridin-3-yl)-5,5-dimethyl-4-oxo-2-thioxoimidazolidin-1-yl)-2-ethylphenoxy)ethyl)piperazin-1-yl)cyclopropanecarboxamide]
  Y (AR degradation efficiency, % of DMSO control): * (0<Y<=25%)
read-out: DC50
  DC50: < 100 nM

## C[C@@H]1CN(CCOc2ccc(N3C(=S)N(c4cnc(C#N)c(C(F)(F)F)c4)C(=O)C3(C)C)cc2CCF)CCN1CC(=O)Nc1cccc(NC2CCC(=O)NC2=O)c1 (stereo partly drawn) [Example 166, 2-((R)-4-(2-(4-(3-(6-cyano-5-(trifluoromethyl)pyridin-3-yl)-5,5-dimethyl-4-oxo-2-thioxoimidazolidin-1-yl)-2-(2-fluoroethyl)phenoxy)ethyl)-2-methylpiperazin-1-yl)-N-(3-(2,6-dioxopiperidin-3-ylamino)phenyl)acetamide]
  Y (AR degradation efficiency, % of DMSO control): * (0<Y<=25%)
read-out: DC50
  DC50: < 100 nM

## CCc1cc(N2C(=S)N(c3cnc(C#N)c(Cl)c3)C(=O)C2(C)C)ccc1OCCN1CCN(CC(=O)Nc2cccc(NC3CCC(=O)NC3=O)c2)[C@H](C)C1 (stereo partly drawn) [Example 167, 2-((R)-4-(2-(4-(3-(5-chloro-6-cyanopyridin-3-yl)-5,5-dimethyl-4-oxo-2-thioxoimidazolidin-1-yl)-2-ethylphenoxy)ethyl)-2-methylpiperazin-1-yl)-N-(3-(2,6-dioxopiperidin-3-ylamino)phenyl)acetamide]
  Y (AR degradation efficiency, % of DMSO control): * (0<Y<=25%)
read-out: DC50
  DC50: < 100 nM

## CCc1cc(N2C(=S)N(c3ccc(C#N)c(Cl)c3)C(=O)C2(C)C)ccc1OCCN1CCN(CC(=O)Nc2cccc(NC3CCC(=O)NC3=O)c2)[C@H](C)C1 (stereo partly drawn) [Example 168, 2-((R)-4-(2-(4-(3-(3-chloro-4-cyanophenyl)-5,5-dimethyl-4-oxo-2-thioxoimidazolidin-1-yl)-2-ethylphenoxy)ethyl)-2-methylpiperazin-1-yl)-N-(3-(2,6-dioxopiperidin-3-ylamino)phenyl)acetamide]
  Y (AR degradation efficiency, % of DMSO control): * (0<Y<=25%)
read-out: DC50
  DC50: < 100 nM

## CCc1cc(N2C(=S)N(c3cnc(C#N)c(C(F)(F)F)c3)C(=O)C2(C)C)ccc1OCCN1C[C@@H](C)N(CC(=O)Nc2cc(Cl)cc(NC3CCC(=O)NC3=O)c2)C[C@H]1C (stereo partly drawn) [Example 169, N-(3-chloro-5-(2,6-dioxopiperidin-3-ylamino)phenyl)-2-((2R,5R)-4-(2-(4-(3-(6-cyano-5-(trifluoromethyl)pyridin-3-yl)-5,5-dimethyl-4-oxo-2-thioxoimidazolidin-1-yl)-2-ethylphenoxy)ethyl)-2,5-dimethylpiperazin-1-yl)acetamide]
  Y (AR degradation efficiency, % of DMSO control): * (0<Y<=25%)
read-out: DC50
  DC50: < 100 nM

## CC(C)c1cc(N2C(=S)N(c3ccc(C#N)c(C(F)(F)F)c3)C(=O)C2(C)C)ccc1OCCN1C[C@@H](C)N(CC(=O)Nc2cccc(NC3CCC(=O)NC3=O)c2)[C@@H](C)C1 (stereo partly drawn) [Example 170, 2-((2S,6R)-4-(2-(4-(3-(4-cyano-3-(trifluoromethyl)phenyl)-5,5-dimethyl-4-oxo-2-thioxoimidazolidin-1-yl)-2-isopropylphenoxy)ethyl)-2,6-dimethylpiperazin-1-yl)-N-(3-(2,6-dioxopiperidin-3-ylamino)phenyl)acetamide]
  Y (AR degradation efficiency, % of DMSO control): * (0<Y<=25%)
read-out: DC50
  DC50: < 100 nM

## CCc1cc(N2C(=S)N(c3cnc(C#N)c(C(F)(F)F)c3)C(=O)C23CCC3)ccc1OCCN1CC2CCC(C1)N2CC(=O)Nc1cccc(NC2CCC(=O)NC2=O)c1 (stereo not shown) [Example 171, 2-(3-(2-(4-(7-(6-cyano-5-(trifluoromethyl)pyridin-3-yl)-8-oxo-6-thioxo-5,7-diazaspiro[3.4]octan-5-yl)-2-ethylphenoxy)ethyl)-3,8-diazabicyclo[3.2.1]octan-8-yl)-N-(3-(2,6-dioxopiperidin-3-ylamino)phenyl)acetamide]
  Y (AR degradation efficiency, % of DMSO control): * (0<Y<=25%)
  DC50: < 100 nM

## CCc1cc(N2C(=S)N(c3cnc(C#N)c(C(F)(F)F)c3)C(=O)C23CCC3)ccc1OCCN1C[C@@H]2CC[C@H]1CN2CC(=O)Nc1cccc(NC2CCC(=O)NC2=O)c1 (stereo partly drawn) [Example 172, 2-((1S,4S)-5-(2-(4-(7-(6-cyano-5-(trifluoromethyl)pyridin-3-yl)-8-oxo-6-thioxo-5,7-diazaspiro[3.4]octan-5-yl)-2-ethylphenoxy)ethyl)-2,5-diazabicyclo[2.2.2]octan-2-yl)-N-(3-(2,6-dioxopiperidin-3-ylamino)phenyl)acetamide]
  Y (AR degradation efficiency, % of DMSO control): *** (35%<Y<50%)
read-out: DC50
  DC50: 100 to 500 nM

## CCc1cc(N2C(=S)N(c3cnc(C#N)c(C(F)(F)F)c3)C(=O)C2(C)C)ccc1OCCN1CC2CCC(C1)N2CC(=O)Nc1cc(Cl)cc(NC2CCC(=O)NC2=O)c1 (stereo not shown) [Example 173, N-(3-chloro-5-(2,6-dioxopiperidin-3-ylamino)phenyl)-2-(3-(2-(4-(3-(6-cyano-5-(trifluoromethyl)pyridin-3-yl)-5,5-dimethyl-4-oxo-2-thioxoimidazolidin-1-yl)-2-ethylphenoxy)ethyl)-3,8-diazabicyclo[3.2.1]octan-8-yl)acetamide]
  Y (AR degradation efficiency, % of DMSO control): * (0<Y<=25%)
  DC50: < 100 nM

## CC1(C)C(=O)N(c2ccc(C#N)c(C(F)(F)F)c2)C(=S)N1c1ccc(OCCN2CCN(CC(=O)Nc3cc(NC4CCC(=O)NC4=O)ccc3F)CC2)c(CC(F)F)c1 (stereo not shown) [Example 174, 2-(4-(2-(4-(3-(4-cyano-3-(trifluoromethyl)phenyl)-5,5-dimethyl-4-oxo-2-thioxoimidazolidin-1-yl)-2-(2,2-difluoroethyl)phenoxy)ethyl)piperazin-1-yl)-N-(5-(2,6-dioxopiperidin-3-ylamino)-2-fluorophenyl)acetamide]
  Y (AR degradation efficiency, % of DMSO control): * (0<Y<=25%)
read-out: DC50
  DC50: < 100 nM

— US12404241B2 (Celgene Corporation, priority 2018, dated 2025)
